The results in this text go back to US9340600B2 (Indiana University Research and Technology Corporation, priority 2012, dated 2016).

In general, EC50 refers to the concentration that produces a half-maximal response.

Holding throughout (type): cell-based
The target of one assay is T1, glucagon receptor (Homo sapiens, UniProt P47871).
T1 construct: expressed in transfected cells; host or cells: HEK293
As to the kind of experiment: cAMP induction, firefly luciferase-based reporter assay in HEK293 cells co-transfected with glucagon receptor. Particulars: EC50 at Glucagon Receptor. The text has this:
(§1) This example describes an exemplary method of testing the biological activity of the peptides of the present disclosures, which method involves assaying cAMP synthesis.

A further assay has as its target T2, GLP-1 receptor (Homo sapiens, UniProt P43220).
T2 construct: expressed in transfected cells; host or cells: HEK293
The assay is described as follows: cAMP induction, firefly luciferase-based reporter assay in HEK293 cells co-transfected with GLP-1 receptor. Particulars: EC50 at GLP-1 Receptor.
Text: as §1
In general terms: A reporter such as luciferase makes a cellular process visible.

The target in the next assay is T3, GIP receptor (Homo sapiens, UniProt P48546).
T3 construct: expressed in transfected cells; host or cells: HEK293
T3 sequence (P48546 22-466): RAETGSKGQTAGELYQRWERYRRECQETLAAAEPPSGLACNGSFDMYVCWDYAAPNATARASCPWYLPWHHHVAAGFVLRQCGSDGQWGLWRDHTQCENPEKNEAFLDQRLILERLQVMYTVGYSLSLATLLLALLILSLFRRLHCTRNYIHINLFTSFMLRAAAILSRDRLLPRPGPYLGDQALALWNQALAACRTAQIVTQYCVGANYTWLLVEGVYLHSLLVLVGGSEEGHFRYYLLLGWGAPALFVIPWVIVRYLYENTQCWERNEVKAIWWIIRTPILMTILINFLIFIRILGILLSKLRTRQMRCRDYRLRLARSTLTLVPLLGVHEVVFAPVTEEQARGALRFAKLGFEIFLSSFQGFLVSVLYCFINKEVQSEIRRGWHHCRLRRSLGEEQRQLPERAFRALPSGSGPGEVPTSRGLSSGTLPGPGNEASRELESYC
The assay is described as follows: cAMP induction, firefly luciferase-based reporter assay in HEK293 cells co-transfected with GIP receptor. Particulars: EC50 at GIP Receptor.
Text: as §1

[1] abbreviates: Table 4, analogs of SEQ ID NO: 43 varying at position 3.
The mark [2] stands for this setting: Table 5, analogs of SEQ ID NO: 10.
Where [3] appears, read: Table 3, analogs of SEQ ID NO: 18 varying at position 3.

Structures are written as SMILES. *1 amine or outer side, *2 acyl side, *3 side chain or, on linkers, in order; H or OH if unused. Where a SMILES comes first, the peptide text is derived from it. Side-chain parts run from the residue outwards. [ ]: non-standard residue; d: D form. The star is where a group is joined. γGlu = O=C(O)[C@H](CCC(=O)[*:2])N[*:1]; Palmitoyl = CCCCCCCCCCCCCCCC(=O)*; Nle = CCCC[C@H](N)C(=O)O; Nva = CCC[C@H](N)C(=O)O; Aib = CC(C)(N)C(=O)O

T1 sequence (P47871 26-477): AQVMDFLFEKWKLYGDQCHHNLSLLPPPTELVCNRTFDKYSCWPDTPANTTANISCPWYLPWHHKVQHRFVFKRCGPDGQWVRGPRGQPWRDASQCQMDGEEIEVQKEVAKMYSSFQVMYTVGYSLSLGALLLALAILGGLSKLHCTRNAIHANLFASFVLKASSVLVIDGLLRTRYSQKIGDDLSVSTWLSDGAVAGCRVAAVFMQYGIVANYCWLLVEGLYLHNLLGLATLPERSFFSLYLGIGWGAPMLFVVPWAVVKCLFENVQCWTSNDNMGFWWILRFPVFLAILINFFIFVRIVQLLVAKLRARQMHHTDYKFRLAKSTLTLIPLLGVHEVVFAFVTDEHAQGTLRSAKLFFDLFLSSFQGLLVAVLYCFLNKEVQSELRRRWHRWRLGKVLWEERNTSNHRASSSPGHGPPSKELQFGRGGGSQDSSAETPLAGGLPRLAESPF
T2 sequence (P43220 24-463): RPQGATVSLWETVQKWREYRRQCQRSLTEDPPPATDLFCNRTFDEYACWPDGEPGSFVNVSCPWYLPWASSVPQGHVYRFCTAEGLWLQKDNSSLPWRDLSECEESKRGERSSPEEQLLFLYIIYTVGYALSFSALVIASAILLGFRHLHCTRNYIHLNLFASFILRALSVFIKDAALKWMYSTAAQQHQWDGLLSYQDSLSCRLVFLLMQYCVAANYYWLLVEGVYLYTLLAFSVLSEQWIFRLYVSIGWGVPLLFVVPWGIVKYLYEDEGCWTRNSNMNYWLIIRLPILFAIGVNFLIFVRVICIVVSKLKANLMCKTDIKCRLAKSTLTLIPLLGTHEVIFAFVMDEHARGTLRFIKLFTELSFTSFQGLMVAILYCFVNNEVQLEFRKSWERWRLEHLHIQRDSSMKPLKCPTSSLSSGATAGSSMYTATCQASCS

In the case of `CCCCCCCCCCCCCCCC(=O)N[C@@H](CCC(=O)NCCCC[C@H](NC(=O)[C@H](CC(=O)O)NC(=O)[C@H](CO)NC(=O)[C@@H](NC(=O)[C@H](Cc1ccccc1)NC(=O)[C@@H](NC(=O)CNC(=O)[C@H](CCC(N)=O)NC(=O)C(C)(C)NC(=O)[C@@H](N)Cc1c[nH]cn1)[C@@H](C)O)[C@@H](C)O)C(=O)N[C@@H](CO)C(=O)N[C@@H](CCCCN)C(=O)N[C@@H](Cc1ccc(O)cc1)C(=O)N[C@@H](CC(C)C)C(=O)N[C@@H](CC(=O)O)C(=O)N[C@@H](CCC(=O)O)C(=O)N[C@@H](CCCNC(=N)N)C(=O)N[C@@H](C)C(=O)N[C@@H](C)C(=O)N[C@@H](CCC(N)=O)C(=O)N[C@@H](CC(=O)O)C(=O)N[C@@H](Cc1ccccc1)C(=O)N[C@H](C(=O)N[C@@H](CCC(N)=O)C(=O)N[C@@H](Cc1c[nH]c2ccccc12)C(=O)N[C@@H](CC(C)C)C(=O)N[C@@H](CC(C)C)C(=O)N[C@@H](CCC(=O)O)C(=O)NCC(=O)NCC(=O)N1CCC[C@H]1C(=O)N[C@@H](CO)C(=O)N[C@@H](CO)C(=O)NCC(=O)N[C@@H](C)C(=O)N1CCC[C@H]1C(=O)N1CCC[C@H]1C(=O)N1CCC[C@H]1C(=O)N[C@@H](CO)C(N)=O)C(C)C)C(=O)O` [compound 43] (H-H[Aib]QGTFTSDK([γGlu-Palmitoyl])SKYLDERAAQDFVQWLLEGGPSSGAPPPS-NH2), the EC50 on glucagon receptor (Table 1) was determined as 6 pM; at glucagon receptor (setting [1]) it was 5 pM; on glucagon receptor (setting [2]), 5 pM; on GLP-1 receptor (Table 1), 4 pM; at GLP-1 receptor (setting [1]), 10 pM; at GLP-1 receptor (setting [2]), 7 pM. For the same compound, the EC50 came out at 5 pM at GIP receptor (Table 1), 4 pM at GIP receptor (setting [1]) and 18 pM at GIP receptor (setting [2]).

Turning to `CCCCCCCCCCCCCCCC(=O)N[C@@H](CCC(=O)NCCCC[C@H](NC(=O)[C@H](CC(=O)O)NC(=O)[C@H](CO)NC(=O)[C@@H](NC(=O)[C@H](Cc1ccccc1)NC(=O)[C@@H](NC(=O)CNC(=O)[C@H](CCCCNC(C)=O)NC(=O)C(C)(C)NC(=O)[C@@H](N)Cc1c[nH]cn1)[C@@H](C)O)[C@@H](C)O)C(=O)N[C@@H](CO)C(=O)N[C@@H](CCCCN)C(=O)N[C@@H](Cc1ccc(O)cc1)C(=O)N[C@@H](CC(C)C)C(=O)N[C@@H](CCC(=O)O)C(=O)N[C@@H](CCC(=O)O)C(=O)N[C@@H](CCCNC(=N)N)C(=O)N[C@@H](C)C(=O)N[C@@H](C)C(=O)N[C@@H](CCC(N)=O)C(=O)N[C@@H](CCC(=O)O)C(=O)N[C@@H](Cc1ccccc1)C(=O)N[C@H](C(=O)N[C@@H](CCC(N)=O)C(=O)N[C@@H](Cc1c[nH]c2ccccc12)C(=O)N[C@@H](CC(C)C)C(=O)N[C@@H](CC(C)C)C(=O)N[C@@H](CCC(=O)O)C(=O)NCC(=O)NCC(=O)N1CCC[C@H]1C(=O)N[C@@H](CO)C(=O)N[C@@H](CO)C(=O)NCC(=O)N[C@@H](C)C(=O)N1CCC[C@H]1C(=O)N1CCC[C@H]1C(=O)N1CCC[C@H]1C(=O)N[C@@H](CO)C(N)=O)C(C)C)C(=O)O` [compound 39] (H-H[Aib]K(Ac)GTFTSDK([γGlu-Palmitoyl])SKYLEERAAQEFVQWLLEGGPSSGAPPPS-NH2; N-terminus assumed), the EC50 at glucagon receptor (setting [3]) was 543 pM; at GLP-1 receptor (setting [3]), 10 pM; at GIP receptor (setting [3]), 336 pM.

Turning to `CCCCCCCCCCCCCCCC(=O)N[C@@H](CCC(=O)NCCCC[C@H](NC(=O)[C@H](CC(=O)O)NC(=O)[C@H](CO)NC(=O)[C@@H](NC(=O)[C@H](Cc1ccccc1)NC(=O)[C@@H](NC(=O)CNC(=O)[C@@H](NC(=O)C(C)(C)NC(=O)[C@@H](N)Cc1c[nH]cn1)C(C)C)[C@@H](C)O)[C@@H](C)O)C(=O)N[C@@H](CO)C(=O)N[C@@H](CCCCN)C(=O)N[C@@H](Cc1ccc(O)cc1)C(=O)N[C@@H](CC(C)C)C(=O)N[C@@H](CC(=O)O)C(=O)N[C@@H](CCC(=O)O)C(=O)N[C@@H](CCCNC(=N)N)C(=O)N[C@@H](C)C(=O)N[C@@H](C)C(=O)N[C@@H](CCC(N)=O)C(=O)N[C@@H](CC(=O)O)C(=O)N[C@@H](Cc1ccccc1)C(=O)N[C@H](C(=O)N[C@@H](CCC(N)=O)C(=O)N[C@@H](Cc1c[nH]c2ccccc12)C(=O)N[C@@H](CC(C)C)C(=O)N[C@@H](CC(C)C)C(=O)N[C@@H](CCC(=O)O)C(=O)NCC(=O)NCC(=O)N1CCC[C@H]1C(=O)N[C@@H](CO)C(=O)N[C@@H](CO)C(=O)NCC(=O)N[C@@H](C)C(=O)N1CCC[C@H]1C(=O)N1CCC[C@H]1C(=O)N1CCC[C@H]1C(=O)N[C@@H](CO)C(N)=O)C(C)C)C(=O)O` [compound 45] (H-H[Aib]VGTFTSDK([γGlu-Palmitoyl])SKYLDERAAQDFVQWLLEGGPSSGAPPPS-NH2), the EC50 worked out at 26 pM at glucagon receptor (setting [1]), 6 pM at GLP-1 receptor (setting [1]) and 5 pM on GIP receptor (setting [1]).

For `CCCCCCCCCCCCCCCC(=O)N[C@@H](CCC(=O)NCCCC[C@H](NC(=O)[C@H](CC(=O)O)NC(=O)[C@H](CO)NC(=O)[C@@H](NC(=O)[C@H](Cc1ccccc1)NC(=O)[C@@H](NC(=O)CNC(=O)[C@H](CCCC)NC(=O)C(C)(C)NC(=O)[C@@H](N)Cc1c[nH]cn1)[C@@H](C)O)[C@@H](C)O)C(=O)N[C@@H](CO)C(=O)N[C@@H](CCCCN)C(=O)N[C@@H](Cc1ccc(O)cc1)C(=O)N[C@@H](CC(C)C)C(=O)N[C@@H](CCC(=O)O)C(=O)N[C@@H](CCC(=O)O)C(=O)N[C@@H](CCCNC(=N)N)C(=O)N[C@@H](C)C(=O)N[C@@H](C)C(=O)N[C@@H](CCC(N)=O)C(=O)N[C@@H](CCC(=O)O)C(=O)N[C@@H](Cc1ccccc1)C(=O)N[C@H](C(=O)N[C@@H](CCC(N)=O)C(=O)N[C@@H](Cc1c[nH]c2ccccc12)C(=O)N[C@@H](CC(C)C)C(=O)N[C@@H](CC(C)C)C(=O)N[C@@H](CCC(=O)O)C(=O)NCC(=O)NCC(=O)N1CCC[C@H]1C(=O)N[C@@H](CO)C(=O)N[C@@H](CO)C(=O)NCC(=O)N[C@@H](C)C(=O)N1CCC[C@H]1C(=O)N1CCC[C@H]1C(=O)N1CCC[C@H]1C(=O)N[C@@H](CO)C(N)=O)C(C)C)C(=O)O` [compound 40] (H-H[Aib][Nle]GTFTSDK([γGlu-Palmitoyl])SKYLEERAAQEFVQWLLEGGPSSGAPPPS-NH2; N-terminus assumed), the EC50 at glucagon receptor (setting [3]) amounted to 68 pM; at GLP-1 receptor (setting [3]), 2 pM; on GIP receptor (setting [3]), 4 pM.

With `CCCCCCCCCCCCCCCC(=O)N[C@@H](CCC(=O)NCCCC[C@H](NC(=O)[C@H](CC(=O)O)NC(=O)[C@H](CO)NC(=O)[C@@H](NC(=O)[C@H](Cc1ccccc1)NC(=O)[C@@H](NC(=O)CNC(=O)[C@H](CCC)NC(=O)C(C)(C)NC(=O)[C@@H](N)Cc1c[nH]cn1)[C@@H](C)O)[C@@H](C)O)C(=O)N[C@@H](CO)C(=O)N[C@@H](CCCCN)C(=O)N[C@@H](Cc1ccc(O)cc1)C(=O)N[C@@H](CC(C)C)C(=O)N[C@@H](CCC(=O)O)C(=O)N[C@@H](CCC(=O)O)C(=O)N[C@@H](CCCNC(=N)N)C(=O)N[C@@H](C)C(=O)N[C@@H](C)C(=O)N[C@@H](CCC(N)=O)C(=O)N[C@@H](CCC(=O)O)C(=O)N[C@@H](Cc1ccccc1)C(=O)N[C@H](C(=O)N[C@@H](CCC(N)=O)C(=O)N[C@@H](Cc1c[nH]c2ccccc12)C(=O)N[C@@H](CC(C)C)C(=O)N[C@@H](CC(C)C)C(=O)N[C@@H](CCC(=O)O)C(=O)NCC(=O)NCC(=O)N1CCC[C@H]1C(=O)N[C@@H](CO)C(=O)N[C@@H](CO)C(=O)NCC(=O)N[C@@H](C)C(=O)N1CCC[C@H]1C(=O)N1CCC[C@H]1C(=O)N1CCC[C@H]1C(=O)N[C@@H](CO)C(N)=O)C(C)C)C(=O)O` [compound 38] (H-H[Aib][Nva]GTFTSDK([γGlu-Palmitoyl])SKYLEERAAQEFVQWLLEGGPSSGAPPPS-NH2; N-terminus assumed), the EC50 at glucagon receptor (setting [3]) worked out at 55 pM; at GLP-1 receptor (setting [3]), 2 pM; on GIP receptor (setting [3]), 4 pM.

As for `CCCCCCCCCCCCCCCC(=O)N[C@@H](CCC(=O)NCCCC[C@H](NC(=O)[C@H](CC(=O)O)NC(=O)[C@H](CO)NC(=O)[C@@H](NC(=O)[C@H](Cc1ccccc1)NC(=O)[C@@H](NC(=O)CNC(=O)[C@H](CCC(N)=O)NC(=O)C(C)(C)NC(=O)[C@@H](N)Cc1c[nH]cn1)[C@@H](C)O)[C@@H](C)O)C(=O)N[C@@H](CO)C(=O)N[C@@H](CCCCN)C(=O)N[C@@H](Cc1ccc(O)cc1)C(=O)N[C@@H](CC(C)C)C(=O)N[C@@H](CC(=O)O)C(=O)N[C@@H](CCC(=O)O)C(=O)N[C@@H](CCCNC(=N)N)C(=O)N[C@@H](C)C(=O)N[C@@H](C)C(=O)N[C@@H](CCC(N)=O)C(=O)N[C@@H](CC(=O)O)C(=O)N[C@@H](Cc1ccccc1)C(=O)N[C@H](C(=O)N[C@@H](CCC(N)=O)C(=O)N[C@@H](Cc1c[nH]c2ccccc12)C(=O)N[C@@H](CC(C)C)C(=O)N[C@@H](CC(C)C)C(=O)N[C@@H](CC(=O)O)C(=O)N[C@@H](C)C(=O)NCC(=O)N1CCC[C@H]1C(=O)N[C@@H](CO)C(=O)N[C@@H](CO)C(=O)NCC(=O)N[C@@H](C)C(=O)N1CCC[C@H]1C(=O)N1CCC[C@H]1C(=O)N1CCC[C@H]1C(=O)N[C@@H](CO)C(N)=O)C(C)C)C(=O)O` [compound 64] (H-H[Aib]QGTFTSDK([γGlu-Palmitoyl])SKYLDERAAQDFVQWLLDAGPSSGAPPPS-NH2), the EC50 came to 2 pM at glucagon receptor (setting [2]), 3 pM on GLP-1 receptor (setting [2]) and 19 pM on GIP receptor (setting [2]).
